Measured values as given in patent US7947707B2, “Nitrogenated heterocyclic compound and pharmaceutical composition comprising the same” (Kissei Pharmaceutical Co., Ltd., priority 2005, dated 2011).

The molecules below were run on potassium oxonate induced hyperuricemia (assay: Blood hypouricemic effect, potassium oxonate induced hyperuricemia). Conditions: Rattus norvegicus, po; 10 mg/kg orally; male SD rats; serum 2 hours after administration; read-out: Decrease (%) in UA concentration.
Format: in vivo
Protocol: Effect of compound of the present invention as a test compound was studied on potassium oxonate induced hyperuricemia with male 7-week-old SD rats (Charles River Japan) and potassium oxonate (Aldrich) suspended in 1% gum arabic solution. Test compound was suspended in 0.5% CMC-Na solution, and then administered orally. Dosing was 10 mg/kg or 50 mg/kg. All volume of administered solution was 10 mL/kg. Potassium oxonate 250 mg/kg was administered to dorsal region of rats subcutaneously, 1 hour later each test compound was administered orally. For control group, only 0.5% CMC-Na solution as a vehicle was administrated. At 2 hours after administration of test compounds or vehicle, blood was collected under ether anesthesia, and serum was separated according to general method. Treated number was 5 for each group.
Measurement of concentration of uric acid was conducted with following prepared reagents. The deproteinization reagent was prepared in the following manner; 100 g of sodium tungstate was added to a 2 L flask, and exactly 75 mL of 85% phosphoric acid and 500 mL of water were added to the flask equipped with a reflux condenser, and heated for an hour. After cooling, the resulting faint yellow-green solution was diluted to 1 L exactly. Sodium carbonate-urea reagent was prepared in the following manner; 14 g of anhydrous sodium carbonate and 14 g of urea were dissolved in water and final volume of the solution was adjusted to 100 mL exactly. Phosphotungstic coloring reagent was prepared in 4-fold dilution of deproteinzation reagent described above with water. UA standard solution (10 mg/dL: Kyokuto pharmaceutical industrial CO., LTD) was used as an uric acid standard solution, and then serially diluted uric acid standard solution with purified water was also used for standard curve.
Three hundred μL of serum or standard was added to 2.1 mL of purified water, and then 150 μL of deproteination reagent was also added to the solution, followed by mixing. After incubating for 20 minutes, the mixture was centrifuged at 3000 rpm for 10 minutes. Sodium carbonate-urea reagent (0.5 mL) was added to 1.5 mL of supernatant, and the mixture was incubated for 20 minutes. Next, after addition of 250 μL of coloring reagent, further incubation was carried over 15 minutes. Absorbance at 660 nm was measured, and concentration of uric acid was calculated with standard curve. Percent decrease in concentration of uric acid was calculated by following formula. Percent decrease in concentration of uric acid (%)=(A−B)/A×100
In formula, A means average of concentration of blood uric acid in control group, B means average of concentration of blood uric acid in test compounds-treated group.

| Compound | inhibition in vivo at 10 mg/kg |
| --- | --- |
| COc1ccc(-c2nn(-c3ccc(C(=O)O)cc3)cc2C#N)cc1 [XO-TT544] | 71.1% |
| N#Cc1cn(-c2ccc(C(=O)O)cc2)cc1-c1ccccc1F [XO-B436] | 77.3% |
| N#Cc1cn(-c2ccc(C(=O)O)cc2)nc1-c1ccccc1F [XO-TT559] | 75.9% |
| COc1ccccc1-c1cn(-c2ccc(C(=O)O)cc2)cc1C#N [XO-B403] | 62.1% |
| Cc1ccccc1-c1nn(-c2ccc(C(=O)O)cc2)cc1C#N [XO-TT573] | 66.3% |
| N#Cc1cn(-c2ccc(C(=O)O)cc2)nc1-c1ccccc1 [XO-TT469] | 75% |
| N#Cc1cn(-c2ccc(C(=O)O)cc2)nc1-c1ccccc1Cl [XO-TT524] | 68.7% |
| Cc1ccc(-c2cn(-c3ccc(C(=O)O)cc3)cc2C#N)s1 [XO-B399-2] | 69.4% |
| Cn1cccc1-c1cn(-c2ccc(C(=O)O)cc2)cc1C#N [XO-B410] | 59.1% |
| COc1ccc(-c2cn(-c3ccc(C(=O)O)cc3)cc2C#N)cc1 [XO-B422] | 79% |
| Cc1ccsc1-c1nn(-c2ccc(C(=O)O)cc2)cc1C#N [XO-TT545] | 75.8% |
| N#Cc1cn(-c2ccc(C(=O)O)cc2)cc1-c1ccccc1Cl [XO-B397] | 76.7% |
| Cc1c(-c2ccccc2)c(C#N)cn1-c1ccc(C(=O)O)cc1 [XO-B440] | 57.6% |
| Cc1ccc(-c2nn(-c3ccc(C(=O)O)cc3)cc2C#N)s1 [XO-TT554] | 60.5% |
| N#Cc1cn(-c2ccc(C(=O)O)cc2)cc1-c1ccc(Cl)s1 [XO-B414] | 67.1% |
| N#Cc1cn(-c2ccc(C(=O)O)cc2)cc1-c1ccc(Cl)cc1 [XO-B421] | 57.8% |
| N#Cc1cn(-c2ccc(C(=O)O)cc2)cc1-c1ccc(F)cc1 [XO-B438] | 69.3% |
| N#Cc1cn(-c2ccc(C(=O)O)cc2)nc1-c1ccc(F)cc1 [XO-TT572] | 56.1% |
| Cc1ccc(-c2cn(-c3ccc(C(=O)O)cc3)cc2C#N)cc1 [XO-B423] | 66.6% |
| N#Cc1cn(-c2ccc(C(=O)O)cc2)cc1-c1ccc(C(F)(F)F)cc1 [XO-B428] | 68.3% |

What follows are molecules tested against T1, xanthine oxidase (from buttermilk) (Bos taurus, UniProt P80457) (assay: Xanthine oxidase inhibitory effect). Conditions: 100 μmol/L xanthine, 5 mU/mL enzyme; read-out: X.O. inhibition IC50.
T1 construct: xanthine oxidase (from buttermilk; biozyme laboratories); purchased biozyme laboratories; host or cells: buttermilk (natural source)
T1 sequence (P80457 whole entry): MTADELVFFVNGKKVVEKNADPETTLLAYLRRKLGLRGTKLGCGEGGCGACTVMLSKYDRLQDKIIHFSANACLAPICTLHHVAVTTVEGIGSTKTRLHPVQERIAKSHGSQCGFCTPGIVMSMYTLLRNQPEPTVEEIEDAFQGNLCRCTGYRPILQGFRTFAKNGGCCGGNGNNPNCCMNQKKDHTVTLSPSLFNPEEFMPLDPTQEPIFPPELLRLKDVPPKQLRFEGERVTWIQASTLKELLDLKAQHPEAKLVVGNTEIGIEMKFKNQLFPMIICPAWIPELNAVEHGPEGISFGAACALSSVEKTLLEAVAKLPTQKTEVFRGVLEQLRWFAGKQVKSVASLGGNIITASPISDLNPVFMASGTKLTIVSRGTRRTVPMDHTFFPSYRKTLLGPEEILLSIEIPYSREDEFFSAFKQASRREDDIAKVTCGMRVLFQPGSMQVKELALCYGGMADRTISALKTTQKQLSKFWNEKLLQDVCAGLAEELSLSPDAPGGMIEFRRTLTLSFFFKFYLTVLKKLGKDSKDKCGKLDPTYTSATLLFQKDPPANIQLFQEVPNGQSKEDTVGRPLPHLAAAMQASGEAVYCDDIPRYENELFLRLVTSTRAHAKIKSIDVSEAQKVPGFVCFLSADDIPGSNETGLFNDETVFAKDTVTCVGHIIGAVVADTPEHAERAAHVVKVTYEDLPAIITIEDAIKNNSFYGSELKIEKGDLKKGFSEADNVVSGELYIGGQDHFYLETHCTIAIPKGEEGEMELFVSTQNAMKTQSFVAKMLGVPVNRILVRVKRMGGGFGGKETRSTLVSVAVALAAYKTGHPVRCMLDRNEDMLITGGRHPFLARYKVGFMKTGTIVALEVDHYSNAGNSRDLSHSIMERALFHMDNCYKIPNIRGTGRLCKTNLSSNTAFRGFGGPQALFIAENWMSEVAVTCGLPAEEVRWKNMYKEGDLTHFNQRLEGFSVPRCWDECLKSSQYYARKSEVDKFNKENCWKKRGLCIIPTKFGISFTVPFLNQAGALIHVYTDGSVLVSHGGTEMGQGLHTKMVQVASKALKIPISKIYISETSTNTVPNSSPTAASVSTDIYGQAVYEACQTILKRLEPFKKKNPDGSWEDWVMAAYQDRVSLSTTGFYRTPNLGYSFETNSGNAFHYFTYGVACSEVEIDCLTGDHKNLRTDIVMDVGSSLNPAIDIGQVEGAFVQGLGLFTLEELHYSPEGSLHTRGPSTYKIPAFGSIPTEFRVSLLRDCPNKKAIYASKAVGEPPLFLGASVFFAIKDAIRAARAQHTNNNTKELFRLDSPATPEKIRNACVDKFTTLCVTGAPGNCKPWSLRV
Format: biochemical
Protocol: Assay for inhibition of xanthine oxidase was performed in 100 μmol/L substrate concentration (final concentration), 5 mU/mL enzyme concentration (final concentration) and compounds of the present invention as test compounds which were prepared with xanthine oxidase (from buttermilk; biozyme laboratories), xanthine (Sigma) and phosphate-buffered saline (PBS). In addition, all test compounds were frozen for preservation in condition of 20 mmol/L DMSO solution and used for experiments after thawing at need. Method is following: after diluted solution of test compound was added to 90 μL of 11.1 mU/mL enzyme solution, the mixture was incubated for 10 minutes after mixing. To start reaction, 100 μL of 200 μmol/L substrate solution was added to there, 10 minutes later, the reaction was stopped by addition of 500 μL of 0.5 mol/L sulfuric acid, and then absorbance at […] was measured. Final concentration of test compound was a single concentration, 10 μmol/L in single well for initial screening and 6 concentrations, 10, 1 μmol/L, 100, 10, 1 nmol/L, 100 pmol/L in duplicate for assay to calculate 50% inhibitory concentration (IC50) which were used for assay. Percent inhibition was calculated according to the formula described below. Percent inhibition (%)=(A−B)/(A−C)×100
In formula, A means absorbance in wells without test compound, B means absorbance in wells with test compound, C means absorbance in blank wells.
IC50 value was calculated from percent inhibition in each concentration by nonlinear regression method.

| IC50 | Compound |
| --- | --- |
| 3.77 nM | COc1ccc(-c2nn(-c3ccc(C(=O)O)cc3)cc2C#N)cc1 [XO-TT544] |
| 3.71 nM | N#Cc1cn(-c2ccc(C(=O)O)cc2)cc1-c1ccccc1F [XO-B436] |
| 2.91 nM | N#Cc1cn(-c2ccc(C(=O)O)cc2)nc1-c1ccccc1F [XO-TT559] |
| 5.98 nM | COc1ccccc1-c1cn(-c2ccc(C(=O)O)cc2)cc1C#N [XO-B403] |
| 4 nM | Cc1ccccc1-c1nn(-c2ccc(C(=O)O)cc2)cc1C#N [XO-TT573] |
| 8.18 nM | N#Cc1cn(-c2ccc(C(=O)O)cc2)nc1-c1ccccc1 [XO-TT469] |
| 5.18 nM | N#Cc1cn(-c2ccc(C(=O)O)cc2)nc1-c1ccccc1Cl [XO-TT524] |
| 5.56 nM | Cc1ccc(-c2cn(-c3ccc(C(=O)O)cc3)cc2C#N)s1 [XO-B399-2] |
| 5 nM | Cn1cccc1-c1cn(-c2ccc(C(=O)O)cc2)cc1C#N [XO-B410] |
| 3.56 nM | COc1ccc(-c2cn(-c3ccc(C(=O)O)cc3)cc2C#N)cc1 [XO-B422] |
| 5.21 nM | Cc1ccsc1-c1nn(-c2ccc(C(=O)O)cc2)cc1C#N [XO-TT545] |
| 5.24 nM | N#Cc1cn(-c2ccc(C(=O)O)cc2)cc1-c1ccccc1Cl [XO-B397] |
| 15.2 nM | Cc1c(-c2ccccc2)c(C#N)cn1-c1ccc(C(=O)O)cc1 [XO-B440] |
| 5.44 nM | Cc1ccc(-c2nn(-c3ccc(C(=O)O)cc3)cc2C#N)s1 [XO-TT554] |
| 5.86 nM | N#Cc1cn(-c2ccc(C(=O)O)cc2)cc1-c1ccc(Cl)s1 [XO-B414] |
| 5.71 nM | N#Cc1cn(-c2ccc(C(=O)O)cc2)cc1-c1ccc(Cl)cc1 [XO-B421] |
| 5.03 nM | N#Cc1cn(-c2ccc(C(=O)O)cc2)cc1-c1ccc(F)cc1 [XO-B438] |
| 4.12 nM | N#Cc1cn(-c2ccc(C(=O)O)cc2)nc1-c1ccc(F)cc1 [XO-TT572] |
| 4.26 nM | Cc1ccc(-c2cn(-c3ccc(C(=O)O)cc3)cc2C#N)cc1 [XO-B423] |
| 5.09 nM | N#Cc1cn(-c2ccc(C(=O)O)cc2)cc1-c1ccc(C(F)(F)F)cc1 [XO-B428] |
